# Patent publication US20260130879A1 (IMMUNIC AG, priority 2023, published 2026)
# “Also recorded” adds a separate entry of the source. Structures can show the parent of a compound that is named as a salt.
# What was measured:
# BDNF = test: Induction of BDNF in LPS-stimulated human PBMCs (ELISA); assay type: cell-based; settings: 3 μM, supernatant 14 h
# [1] = system: vesicular amino acid transporter 2 (VMAT2); test: Nurr1 regulated gene expression of VMAT2 in T98G cells (qPCR); assay type: cell-based; settings: 16 h
# Procedure: (§1) . After 16 h of incubation the medium was removed, cells were washed with phosphate buffered saline (PBS) and after full aspiration of residual liquids immediately frozen at −80° C., until further procession. Total RNA was isolated using E.Z.N.A.® Total RNA Kit I (Omega Bio-tek. Norcross. USA) following the manufacturer's instructions. RNA concentration and purity was assessed using a NanoDrop™ One UV/VIS spectrophotometer (Thermo Fisher Scientific. Waltham. USA) at 260/280 nm. Right before reverse transcription (RT), RNA was linearized at a concentration of 133 ng/μL at 65° C., for 10 min and then immediately incubated on ice for at least 1 min. Reverse transcription was performed using 2 μg total RNA, 20 U Recombinant RNasin® Ribonuclease Inhibitor (Promega, Mannheim, Germany), 100 U SuperScript IV Reverse Transcriptase including 5× First Strand Buffer and 0.1 M dithiothreitol (Thermo Fisher Scientific, Waltham, USA), 3.75 ng linear acrylamide. […] Quantitative polymerase chain reaction (qPCR) was conducted using an Applied Biosystems™ QuantStudio 1 (Waltham, USA) and a SYBR green based detection method. […] PCR product specificity was evaluated using a melting curve analysis ranging from 65 to 95° C. […]
# [2] = system: tyrosine hydroxylase (TH); test: Nurr1 regulated gene expression of TH in T98G cells (qPCR); assay type: cell-based; settings: 16 h
# Procedure: as §1
# N2A = test: Apoptosis assay in N2A cells (TNFα and CHX); assay type: cell-based, murine; settings: pretreated 1 h, TNFα 50 ng/ml and CHX 20 μg/mL for 6 hours
# Procedure: (§2) Cell viability was assessed by flow cytometry after staining the cells with Annexin V and a live/dead dye. Alive cells are defined as […].
# SH-SY5Y = test: Apoptosis assay in SH-SY5Y cells (TNFα and CHX); assay type: cell-based, human; settings: pretreated 1 h, TNFα 50 ng/ml and CHX 20 μg/mL for 6 hours
# Procedure: as §2
# [3] = system: neurofilament light polypeptide (NFL); test: Serum neurofilament (NFL) in Phase 2 study in relapsing-remitting multiple sclerosis, patients with no relapses; assay type: in vivo, human; settings: after 24 weeks, RRMS patients with no relapses
# Procedure: […]. The study was carried out in accordance with current ICH E6 (Good Clinical Practice) guidelines and the EMA Reflection paper for laboratories that perform the analysis or evaluation of clinical trial samples (EMA/INS/GCP/532137/2010, 28 Feb. 2012). The sample analysis was performed on a Meso QuickPlex SQ 120 analyzer by an ECLIA technique using a validated method.
# In order to confirm an effect of IMU-838 on the plasma levels of NFL the subgroup of patients with no relapses was investigated
# Nurr1 target genes = test: Microarray gene expression in stimulated human PBMCs; assay type: cell-based; settings: anti-CD3/anti-CD28 stimulated human PBMCs, 20 h
# Procedure: Human PBMC isolation was performed similarly as described above. […] Four biological replicates were used per condition. Cells were detached from the cell culture plates by using MACS buffer, were washed with PBS and then resuspended in RLT buffer for subsequent RNA isolation with RNAeasy Mini Kit (Quiagen). 100 ng total RNA per sample were introduced into an RT-IVT reaction. Prior to RT-IVT, the total RNA samples were spiked with in-vitro synthesized polyadenylated transcripts (One-Color RNA Spike-In Mix, Agilent Technologies), which serves as an internal labeling control for linearity, sensitivity and accuracy. The spiked total RNA was reverse transcribed into cDNA and then converted into labeled cRNA by in vitro transcription (Low Input Quick-Amp Labeling Kit One-Color, Agilent Technologies) incorporating Cyanine-3-CTP. All steps were carried out according to the manufacturer's instructions. […] Afterwards, microarrays were washed with increasing stringency using Gene Expression Wash Buffers (Agilent Technologies) followed by drying with acetonitrile (SIGMA). […] Differential gene expression was identified by applying appropriate biostatistics to the data set. GeneSpring GX11 analysis software was used to normalize and analyze the raw data. […] The induced and repressed genes were further characterized for involvement in functional categories (biological processes, molecular functions, cellular components, protein classes and pathways) based on the PANTHER database.
# NFL = settings: EXPAND, 12-month; cited from earlier work
# hDHODH = target: T1, hDHODH (Homo sapiens, UniProt Q02127); test: in vitro inhibition of hDHODH; assay type: biochemical
# T1 construct: measured using an N-terminally truncated recombinant hDHODH enzyme
# T1 sequence (Q02127 29-395): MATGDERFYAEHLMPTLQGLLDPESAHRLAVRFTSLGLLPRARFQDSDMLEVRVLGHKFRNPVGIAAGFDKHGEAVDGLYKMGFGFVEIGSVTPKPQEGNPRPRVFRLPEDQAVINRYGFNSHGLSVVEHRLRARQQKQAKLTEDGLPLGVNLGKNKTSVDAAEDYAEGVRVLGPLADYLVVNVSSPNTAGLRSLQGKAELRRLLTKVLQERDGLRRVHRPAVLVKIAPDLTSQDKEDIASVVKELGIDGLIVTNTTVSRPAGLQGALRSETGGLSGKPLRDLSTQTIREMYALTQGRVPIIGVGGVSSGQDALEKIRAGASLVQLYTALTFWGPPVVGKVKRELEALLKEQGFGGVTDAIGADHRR
# Procedure: The in vitro inhibition of hDHODH was measured using an N-terminally truncated recombinant hDHODH enzyme. Briefly, the hDHODH concentration was adjusted in a way that an average slope of approximately 0.2 AU/min served as the positive control (e.g., without inhibitor). The assay mixture contained 60 μM 2,6-dichloroindophenol, 50 μM decylubiquinone and 100 μM dihydroorotate. The hDHODH enzyme with or without at least six different concentrations of the compounds was added and measurements were performed in 50 mM TrisHCl, 150 mM KCl and 0.1% Triton X-100 at pH 8.0 and at 30° C. The reaction was started by adding dihydroorotate and measuring the absorption at 600 nm for 2 min. For the determination of the IC50 values, each data point was recorded in triplicate.
# human Nurr1 = human Nurr1 (Homo sapiens, UniProt P43354); test: Hybrid Gal4-Nurr1 reporter gene assay in HEK293T cells
# Chain of human Nurr1 (P43354 360-595 limits assumed): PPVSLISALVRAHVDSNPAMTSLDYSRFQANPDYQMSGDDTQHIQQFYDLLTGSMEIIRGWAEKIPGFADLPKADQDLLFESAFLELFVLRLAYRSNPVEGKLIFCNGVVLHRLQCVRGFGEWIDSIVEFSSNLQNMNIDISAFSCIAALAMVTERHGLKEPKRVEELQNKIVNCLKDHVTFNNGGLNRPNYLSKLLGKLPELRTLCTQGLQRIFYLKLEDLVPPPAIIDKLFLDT
# Procedure: Nurr1 modulation was determined in a Gal4 hybrid reporter gene assays in HEK293T cells (German Collection of Microorganisms and Cell Culture GmbH, DSMZ) using pFR-Luc (Stratagene, La Jolla, CA, USA; reporter), pRL-SV40 (Promega, Madison, WI, USA: internal control) and pFA-CMV-hNurr1-LBD, coding for the hinge region and ligand binding domain of the canonical isoform of human Nurr1. Cells were cultured in Dulbecco's modified Eagle's medium (DMEM), high glucose supplemented with 10% fetal calf serum (FCS), sodium pyruvate (1 mM), penicillin (100 U/mL), and streptomycin (100 μg/mL) at 37° C., and 5% CO2 and seeded in 96-well plates (3×10+ cells/well). […] Firefly luminescence was divided by Renilla luminescence and multiplied by 1000 resulting in relative light units (RLU) to normalize for transfection efficiency and cell growth. Fold activation was obtained by dividing the mean RLU of test compound by the mean RLU of the untreated control. All samples were tested in at least three biologically independent experiments in duplicates. For dose-response curve fitting and calculation of EC50 values, the equation “[Agonist] versus response (three parameters)” was used in GraphPad Prism (version 7.00, GraphPad Software, La Jolla, CA, USA).
# Similarly as described in Part A, the Nurr1 modulation was determined in a Gal4 hybrid reporter gene assay at a fixed concentration of 3 μM.
# RRMS patients = settings: 12 weeks or 24 weeks; cited from earlier work
# brain lesions = settings: animal model of RRMS; cited from earlier work
structure (smiles),measurement,setting,value
"C/C(O)=C(\C#N)C(=O)Nc1ccc(C(F)(F)F)cc1 [teriflunomide, reference compound]",BDNF production,BDNF,no effect
"C#CCOc1cccc(-c2ccc(NC(=O)C3=C(C(=O)O)CCC3)c(F)c2)c1 [Example 3, 2-((3-Fluoro-3′-(prop-2-yn-1-yloxy)-[1,1′-biphenyl]-4-yl)carbamoyl)cyclopent-1-ene-1-carboxylic acid]",gene expression on vesicular amino acid transporter 2 (VMAT2),[1],dose-dependent activation; also recorded: dose-dependent gene expression
same,gene expression on tyrosine hydroxylase (TH),[2],dose-dependent gene expression
same,"induction of apoptosis, N2A",N2A,induction of apoptosis was reduced
same,"induction of apoptosis, SH-SY5Y",SH-SY5Y,induction of apoptosis was reduced
"COc1cccc(-c2ccc(NC(=O)C3=C(C(=O)O)CCC3)c(F)c2)c1 [Example 1, vidofludimus]",gene expression on vesicular amino acid transporter 2 (VMAT2),[1],dose-dependent gene expression
same,gene expression on tyrosine hydroxylase (TH),[2],dose-dependent gene expression
"COc1cccc(-c2ccc(NC(=O)C3=C(C(=O)O)CCC3)c(F)c2)c1 [IMU-838, vidofludimus calcium]",mean change of NFL (reduction),[3],18%
same,Upregulation A2M,Nurr1 target genes,1.6
same,Upregulation BHLHE41,Nurr1 target genes,1.5
same,Upregulation CFB,Nurr1 target genes,2.4
same,Upregulation HSD11B1,Nurr1 target genes,2.5
same,Upregulation LTA,Nurr1 target genes,2.0
same,Upregulation MARCO,Nurr1 target genes,2.6
same,Upregulation NCAM,Nurr1 target genes,1.6
same,BDNF production,BDNF,BDNF is produced
CCc1cc(/C(C)=N/OCc2ccc(C3CCCCC3)c(C(F)(F)F)c2)ccc1CN1CC(C(=O)O)C1 [siponimod],"effect on neurofilament, non-active SPMS",NFL,little or no effect on neurofilament
[2H]C([2H])([2H])Oc1cccc(-c2c(F)c(F)c(NC(=O)c3ccsc3C(=O)NCCO)c(F)c2F)c1 [6/40],IC50,hDHODH,> 10 µM
same,EC50,human Nurr1,1 to 10 µM
same,Nurr1 agonism max. fold activation (range),human Nurr1,+ (+: ≥1.3-fold to <2-fold)
"COc1cccc(-c2ccc(NC(=O)C3=C(C(=O)O)CCC3)c(F)c2)c1 [vidofludimus calcium, vidofludimus calcium salt dihydrate]",rate of confirmed disability worsening over time vs placebo,RRMS patients,lower rate of confirmed disability worsening
same,unique active brain lesions vs placebo,RRMS patients,significantly fewer unique active brain lesions
same,reduction in brain lesions vs control treatment,brain lesions,greater reduction in brain lesions
[2H]C([2H])([2H])Oc1ccccc1-c1c(F)c(F)c(NC(=O)c2cscc2C(=O)O)c(F)c1F [6/5],IC50,hDHODH,< 0.01 µM
same,EC50,human Nurr1,< 0.1 µM
same,Nurr1 agonism max. fold activation (range),human Nurr1,+ (+: ≥1.3-fold to <2-fold)
[2H]C([2H])([2H])Oc1cccc(-c2c(F)c(F)c(NC(=O)c3ccsc3C(=O)NCC#N)c(F)c2F)c1 [6/39],IC50,hDHODH,0.1 to 1 µM
same,EC50,human Nurr1,1 to 10 µM
same,Nurr1 agonism max. fold activation (range),human Nurr1,++ (++: ≥2-fold to <3-fold)
